# Reference: ChEMBL document CHEMBL1201862, “PubChem BioAssay data set” (2004)
#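 Five compound concentrations were applied to cells in 96-well plates for 48 hours; endpoints were derived by simple linear interpolation of the resulting dose-response curve. GI50 = concentration required for 50% inhibition of growth.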 Activity calls are given as the source filed them. Cut-off read from the data, not from the text of the source: active = GI50 up to about 1.1 µM and inactive = higher.
# How the values were obtained:
# Experiment in all cases: DTP human tumour cell line panel, 48 h
# [1] = system: A549
# [2] = system: NCI/ADR-RES
# [3] = system: IGROV-1
# [4] = system: KM12
# [5] = system: EKVX
# [6] = system: SR
# [7] = system: SN12C
# [8] = system: M14
# [9] = system: NCI-H23
# [10] = system: HOP-92
# [11] = system: COLO 205
# [12] = system: UACC-257
# [13] = system: Hs-578T
# [14] = system: NCI-H226
# [15] = system: SF-295
# [16] = system: T47D
# [17] = system: HCT-116
# [18] = system: SF-539
# [19] = system: K562
# [20] = system: ACHN
# [21] = system: OVCAR-8
# [22] = system: SNB-75
# [23] = system: MCF7
# [24] = system: BT-549
# [25] = system: OVCAR-5
# [26] = system: CCRF-CEM
# [27] = system: UACC-62
# [28] = system: SNB-19
# [29] = system: NCI-H460
# [30] = system: MDA-MB-435
# [31] = system: MDA-N
# [32] = system: HCC 2998
# [33] = system: OVCAR-3
# [34] = system: SW-620
# [35] = system: MDA-MB-231
# [36] = system: SK-MEL-2
# [37] = system: DU-145
# [38] = system: 786-0
# [39] = system: SK-MEL-28
# [40] = system: SK-OV-3
# [41] = system: Malme-3M
# [42] = system: OVCAR-4
# [43] = system: RPMI-8226
# [44] = system: RXF 393
# [45] = system: TK-10
# [46] = system: PC-3
# [47] = system: SF-268
# [48] = system: NCI-H522
# [49] = system: UO-31
# [50] = system: HT-29
# [51] = system: HCT-15
# [52] = system: U-251
# [53] = system: A498
# [54] = system: MOLT-4
# [55] = system: HL-60
# [56] = system: CAKI-1
# [57] = system: SK-MEL-5
# [58] = system: HOP-62
smiles,measurement,setting,value
S=c1[nH]c(=S)c2cc(Sc3ccc4[nH]c(=S)[nH]c(=S)c4c3)ccc2[nH]1,GI50,[1],59.7 µM (inactive)
same,GI50,[2],> 100 µM (inactive)
same,GI50,[3],30 µM (inactive)
same,GI50,[4],24 µM (inactive)
same,GI50,[5],42.2 µM (inactive)
same,GI50,[6],17.1 µM (inactive)
same,GI50,[7],40 µM (inactive)
same,GI50,[8],66.7 µM (inactive)
same,GI50,[9],28 µM (inactive)
same,GI50,[10],32.3 µM (inactive)
same,GI50,[11],26.9 µM (inactive)
same,GI50,[12],43.3 µM (inactive)
same,GI50,[13],22 µM (inactive)
same,GI50,[14],20.4 µM (inactive)
same,GI50,[15],22 µM (inactive)
same,GI50,[16],50.5 µM (inactive)
same,GI50,[17],48.1 µM (inactive)
same,GI50,[18],30.2 µM (inactive)
same,GI50,[19],49.1 µM (inactive)
same,GI50,[20],35.2 µM (inactive)
same,GI50,[21],22 µM (inactive)
same,GI50,[22],19.5 µM (inactive)
same,GI50,[23],59.6 µM (inactive)
same,GI50,[24],31.2 µM (inactive)
same,GI50,[25],> 100 µM (inactive)
same,GI50,[26],25.6 µM (inactive)
same,GI50,[27],20 µM (inactive)
same,GI50,[28],30.4 µM (inactive)
same,GI50,[29],45.5 µM (inactive)
same,GI50,[30],53 µM (inactive)
same,GI50,[31],40.9 µM (inactive)
same,GI50,[32],37.3 µM (inactive)
same,GI50,[33],36.1 µM (inactive)
same,GI50,[34],48.4 µM (inactive)
same,GI50,[35],59.6 µM (inactive)
same,GI50,[36],45.1 µM (inactive)
same,GI50,[37],62.4 µM (inactive)
same,GI50,[38],21.5 µM (inactive)
same,GI50,[39],53.8 µM (inactive)
same,GI50,[40],24.3 µM (inactive)
same,GI50,[41],55.3 µM (inactive)
same,GI50,[42],23.2 µM (inactive)
same,GI50,[43],17.7 µM (inactive)
same,GI50,[44],23.7 µM (inactive)
same,GI50,[45],25.1 µM (inactive)
same,GI50,[46],52.5 µM (inactive)
same,GI50,[47],24.2 µM (inactive)
same,GI50,[48],34.8 µM (inactive)
same,GI50,[49],26.9 µM (inactive)
same,GI50,[50],41 µM (inactive)
same,GI50,[51],39.2 µM
same,GI50,[52],33 µM (inactive)
same,GI50,[53],24.5 µM (inactive)
same,GI50,[54],46.8 µM (inactive)
same,GI50,[55],20.8 µM (inactive)
same,GI50,[56],36.6 µM (inactive)
same,GI50,[57],46.9 µM (inactive)
O=C1CC(=O)NC(NN2C(=O)/C(=C/c3ccccc3)N=C2c2ccccc2)=N1,GI50,[1],> 100 µM (inactive)
same,GI50,[2],> 100 µM (inactive)
same,GI50,[3],> 100 µM (inactive)
same,GI50,[4],> 100 µM (inactive)
same,GI50,[6],> 100 µM (inactive)
same,GI50,[7],> 100 µM (inactive)
same,GI50,[8],> 100 µM (inactive)
same,GI50,[9],39 µM (inactive)
same,GI50,[10],> 100 µM (inactive)
same,GI50,[11],> 100 µM (inactive)
same,GI50,[12],> 100 µM (inactive)
same,GI50,[13],> 100 µM (inactive)
same,GI50,[14],> 100 µM (inactive)
same,GI50,[15],> 100 µM (inactive)
same,GI50,[16],> 100 µM (inactive)
same,GI50,[17],> 100 µM (inactive)
same,GI50,[18],> 100 µM (inactive)
same,GI50,[19],> 100 µM (inactive)
same,GI50,[20],> 100 µM (inactive)
same,GI50,[21],> 100 µM (inactive)
same,GI50,[22],> 100 µM (inactive)
same,GI50,[23],> 100 µM (inactive)
same,GI50,[24],26.6 µM (inactive)
same,GI50,[25],> 100 µM (inactive)
same,GI50,[26],> 100 µM (inactive)
same,GI50,[27],26.7 µM (inactive)
same,GI50,[29],> 100 µM (inactive)
same,GI50,[30],> 100 µM (inactive)
same,GI50,[31],> 100 µM (inactive)
same,GI50,[32],> 100 µM (inactive)
same,GI50,[33],> 100 µM (inactive)
same,GI50,[34],> 100 µM (inactive)
same,GI50,[35],> 100 µM (inactive)
same,GI50,[36],> 100 µM (inactive)
same,GI50,[37],> 100 µM (inactive)
same,GI50,[38],> 100 µM (inactive)
same,GI50,[39],> 100 µM (inactive)
same,GI50,[40],> 100 µM (inactive)
same,GI50,[58],> 100 µM (inactive)
same,GI50,[41],> 100 µM (inactive)
same,GI50,[42],> 100 µM (inactive)
same,GI50,[43],> 100 µM (inactive)
same,GI50,[44],> 100 µM (inactive)
same,GI50,[45],> 100 µM (inactive)
same,GI50,[46],> 100 µM (inactive)
same,GI50,[47],> 100 µM (inactive)
same,GI50,[48],> 100 µM (inactive)
same,GI50,[49],32.9 µM (inactive)
same,GI50,[50],> 100 µM (inactive)
same,GI50,[51],> 100 µM
same,GI50,[52],> 100 µM (inactive)
same,GI50,[53],> 100 µM (inactive)
same,GI50,[54],> 100 µM (inactive)
same,GI50,[56],> 100 µM (inactive)
same,GI50,[57],> 100 µM (inactive)
